From PMC4919790, “Allosteric modulation of AURKA kinase activity by a small-molecule inhibitor of its protein-protein interaction with TPX2” (Scientific Reports, 2016)
Where two headings read alike, the source gives them in different places.

Tests used:
[1] = biological target: T1, AURKA-TPX2 interaction (His-tagged AURKA123–403 / TAMRA-labelled TPX2 1–43) (Homo sapiens, UniProt O14965); assay: Fluorescence anisotropy (FA) competition assay: displacement of TAMRA-TPX2 1-43 from AURKA123-403
T1 sequence (O14965 123-403): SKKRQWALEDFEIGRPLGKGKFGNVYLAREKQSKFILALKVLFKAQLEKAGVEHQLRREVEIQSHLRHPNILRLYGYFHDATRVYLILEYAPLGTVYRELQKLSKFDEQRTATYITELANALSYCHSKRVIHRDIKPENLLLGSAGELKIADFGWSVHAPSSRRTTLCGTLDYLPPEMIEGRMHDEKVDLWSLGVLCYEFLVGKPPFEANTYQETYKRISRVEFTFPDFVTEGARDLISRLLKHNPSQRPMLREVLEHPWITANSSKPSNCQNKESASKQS
Source text: The HTS actives were resupplied and retested to check for dose-dependent inhibition of the PPI in FA assay.

pT287/pT288 AURKA126–390 = biological target: T2, pT287/pT288 AURKA126–390 (Homo sapiens, UniProt O14965); assay: HTRF in vitro kinase assay (KinEASE, Cisbio); format: biochemical; conditions: excess inhibitor (25x Ki), absence of TPX2
T2 construct: a T287/T288 doubly-phosphorylated recombinant AURKA126–390 in the absence of TPX2; 6xHis (inferred from reverse primer 4 of AurAG-126-390); made in house; host or cells: E. coli BL21 (DE3) with pUBS550
T2 sequence (O14965 126-390): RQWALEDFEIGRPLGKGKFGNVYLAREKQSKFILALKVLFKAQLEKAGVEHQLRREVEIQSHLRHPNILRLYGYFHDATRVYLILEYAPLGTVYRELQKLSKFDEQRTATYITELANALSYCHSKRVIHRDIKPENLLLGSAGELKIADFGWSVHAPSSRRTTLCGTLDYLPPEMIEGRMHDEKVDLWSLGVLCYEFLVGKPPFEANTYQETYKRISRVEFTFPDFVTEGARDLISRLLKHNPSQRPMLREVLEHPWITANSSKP
Experimental: To test this hypothesis, we used a commercially available in vitro kinase assay (KinEASE, Cisbio) to measure AURKA-dependent phosphorylation of a generic peptide substrate by homogeneous time-resolved fluorescence (HTRF) assay (Supplementary Fig. 9). Enzymatic phosphorylation occurred in the presence of the substrate peptide and ATP, and the phosphorylated substrate was subsequently detected in a proprietary antibody detection step. These studies were performed using a T287/T288 doubly-phosphorylated recombinant AURKA126–390 in the absence of TPX2.
The volume of enzymatic reaction was 10 μL, [AURKA] = 5 ng/well, excess propriatory peptide substrate (1 μM) and ATP (100 μM). The reaction was incubated for 10 min. MLN8237 is an ATP-competitive inhibitor used as a positive control. […] Error bars represent standard deviation (n = 3).

[2] = biological target: T3, AURKA (Aurora-AG-126-390) (Homo sapiens, UniProt O14965); assay: Isothermal titration calorimetry; format: binding; conditions: for Kd: 25 °C; for Ligand efficiency (Leff): calculated using Ki or Kd values
T3 construct: was titrated into Aurora-AG-126-390 protein solution (30 μM); extra N-terminal Gly from cloning (the 'G' of the construct name); 6xHis (read by me from reverse primer 4); made in house; host or cells: E. coli BL21 (DE3) with pUBS550, co-expressed with lambda phosphatase (pBAT4-λPP)
T3 sequence (O14965 126-390): T2 sequence (O14965 126-390)
Experimental: Calorimetric titrations were performed on an iTC200 (MicroCal, Inc.) device. Protein was buffer exchanged into ITC buffer (Buffer C with 2% DMSO). Titration experiments were performed at 25 °C with an initial injection (0.4 μL) at a duration of 0.8 s, followed by 19 injections (2 μL) at a duration of 4 s. […] Binding isotherms were fit by non-linear regression using the single-site model provided by Origin software (MicroCal, Inc.). The stoichiometry of the interaction (N), equilibrium association constant (Ka) and change of enthalpy (ΔH) were floated during the fitting.

[3] = test system: AURKA on the spindle in mitotic HeLa cells; assay: High-content microscopy assay of AURKA mislocalisation from spindle microtubules; format: cell-based; conditions: Homo sapiens, 2 h treatment, % cells with below threshold AURKA intensity under TPX2 mask
Experimental: For quantitative determination of Aurora-A mislocalisation from spindle microtubules, cells were plated at a density of 0.75 × 10^5 cells per well of a clear flat bottom 96-well plate. On each plate a set of wells were treated with doxycycline as a positive control. After 24 h the compounds were diluted in […] Bortezomib (Selleck Chemicals) and treated for 2 h. Hereafter all steps were carried out at room temperature. The cells were fixed by addition of freshly prepared PHEM-buffered formaldehyde (100 μL per well) for 10 minutes (100 mM PIPES, 20 mM HEPES, 5 mM EGTA, 2 mM MgCl2, 0.2% TritonX-100, 6.4% formaldehyde). These were permeablised with 100 μl of PBS-T-T (1X PBS/0.1% Triton- 100/0.1% Tween-20) for 10 min, blocked in 3% BSA-PBS-T-T for 30 min. Hereafter all the steps including dilution of antibodies was done in the blocking solution. A cocktail of primary antibodies (50 μL, mouse anti-TPX2, Abcam 32795, 18D5-1, 1:500; rabbit anti-Aurora A, Millipore EP1008Y, 1:1000) for 1.5 h and washed thrice with the blocking solution. […]
The plates were scanned using Molecular Translocation protocol with 40X objective with 3 flurophore recognising channels. […] The software generated an overlay of TPX2-stained spindles (channel 2), and the average intensity of the Aurora-A (channel 3) within that mask was scored. […]

[4] = biological target: T4, AURKAGSMGS-126-390 (non-phosphorylated, uncleaved His-tag) (Homo sapiens, UniProt O14965); assay: In vitro auto-phosphorylation assay (anti-pT288 Western blot); format: biochemical; conditions: AurkinA 100 μM, ATP 100 μM, protein 30 μM, up to 40 min
T4 construct: Aurora-A kinase construct AurAGSMGS-126-391 was purified as described above; made in house; host or cells: E. coli BL21 (DE3) with pUBS550, co-expressed with lambda phosphatase
T4 sequence (O14965 126-391): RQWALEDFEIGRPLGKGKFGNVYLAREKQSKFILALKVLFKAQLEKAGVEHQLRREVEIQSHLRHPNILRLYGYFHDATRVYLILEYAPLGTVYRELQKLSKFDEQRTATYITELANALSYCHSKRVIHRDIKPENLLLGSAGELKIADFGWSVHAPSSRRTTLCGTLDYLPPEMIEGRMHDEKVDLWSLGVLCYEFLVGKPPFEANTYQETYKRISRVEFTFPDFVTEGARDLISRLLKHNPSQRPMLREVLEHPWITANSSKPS
Experimental: It has been extensively reported that auto-phosphorylation of […] in the activation loop stimulates AURKA kinase activity. […] For autophosphorylation experiments Aurora-A kinase construct […]-126-391 was purified as described above but using buffers containing no ATP and His-tag was left on the N-terminus. […] Control sample contained JNJ-7706621 (100 μM) that was added to the reaction prior ATP. 15 ng of each sample were run in 11% SDS-PAGE gels. Western blots were prepared by electro-blotting SDS-PAGE gels onto PVDF membranes (Millipore) and probing with anti-penta-his-tag antibody (1:2000 dilution, Qiagen, 34660) or anti-Aurora-A phosphoT288 antibodies (1:1000 dilution, Abcam, ab195748), followed by HRP conjugated […]-mouse antibodies (GE Healthcare) or HRP conjugated goat anti-rabbit antibodies (Abcam), respectively.

[5] = biological target: T5, AURKA / mCherry-TPX2 1–43 (Homo sapiens, UniProt O14965); assay: Co-immunoprecipitation of AURKA and mCherry-TPX2 1-43 from HeLa cell lysates; conditions: cell lysates (500 µg) incubated 2 h, 25-400 µM, +DOX
T5 construct: endogenous in cells; host or cells: HeLa FlpIn TREx lysate; AURKA endogenous, mCherry-TPX2 1-43 stably transfected and doxycycline-induced
T5 sequence (O14965 1-403): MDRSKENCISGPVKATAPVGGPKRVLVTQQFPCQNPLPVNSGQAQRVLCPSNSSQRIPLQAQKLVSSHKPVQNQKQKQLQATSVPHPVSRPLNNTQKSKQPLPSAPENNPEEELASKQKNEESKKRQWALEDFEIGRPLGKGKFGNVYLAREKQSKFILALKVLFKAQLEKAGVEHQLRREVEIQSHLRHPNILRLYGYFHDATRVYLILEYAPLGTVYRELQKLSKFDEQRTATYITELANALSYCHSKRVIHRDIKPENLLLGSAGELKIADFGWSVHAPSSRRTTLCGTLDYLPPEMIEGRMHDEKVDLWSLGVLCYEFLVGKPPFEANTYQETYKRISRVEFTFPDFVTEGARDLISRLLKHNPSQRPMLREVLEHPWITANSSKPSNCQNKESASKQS
Experimental: Stable HeLa FlpIn TREx cell line expressing a fusion mCherry-TPX2_1–43 protein upon addition of doxycycline ([…]) was generated (Supplementary Methods). This cell line was used for further experiments. For immunoblotting, proteins were extracted in lysis buffer (50 mM HEPES, pH 7.4; 100 mM NaCl, 0.5% NP-40, 10 mM EDTA, 20 mM β-glycerophosphate, 1 mM DTT, 1 mM sodium orthovanadate, 1 mM PMSF, protease inhibitors and phosphatase inhibitor (Roche)). 0.5 mg of lysate was used for co-immunoprecipitation. mCherry pull down was performed using RFP-trap (Chromotrap) following manufacturers’ instructions. Extracts were resolved by SDS-PAGE, transferred to PVDF membrane, blocked in TBS-Tween (50 mM Tris pH 7.6, 150 mM NaCl, 0.1% Tween-20) plus 5% non-fat dried milk, and probed with primary antibodies at 4 °C overnight. Membrane was incubated with secondary mouse HRP (GE Healthcare, NXA931) and rabbit HRP antibodies (Jackson Laboratories, 111-036-047) for 1 h at room temperature and the signal was developed using ECL or ECL prime reagent (GE Healthcare).
co -‐immunoprecipitation
(1 picture or pasted object on this page, not shown here)

[6] = test system: phosphorylated T288 (pT288) AURKA in mitotic HeLa cells; assay: High-content AURKA T288-dephosphorylation assay; format: cell-based; conditions: Homo sapiens, read-out: EC50, % cells with below threshold pT288
Experimental: A modified version of the Aurora A mislocalisation assay using the same cells, doxycycline-treated controls, drugging plan, Bortezomib treatment, fixing protocol, Hoechst staining and secondary antibodies as above. The primary antibodies used were anti-phospho Aurora A Thr288 (Cell Signaling, #3079, 1:500) and anti-Histone H3 phospho S10 (Abcam, 14955, 1:2000). High-content imaging settings were the same as for the mislocalisation assay, but analysis was performed using the CellHealthProfiling v4 Bioapplication. Cells were identified in the Hoechst channel as above, and the resulting nuclear mask used for all subsequent measurements. Mitotic cells were selected from the images on the basis of phospho-histone H3 positivity, using a threshold 10 times above the image background. These selected cells were then measured for phospho-Aurora A staining intensity within a target area defined by expanding the nuclear mask by 8 pixels then collapsing it using a threshold for the phospho-Aurora channel, set to 3 times the background staining in this channel. Assay thresholds were calculated from the negative control wells of each plate as for the mislocalisation assay and ‘% dephosphorylated Aurora A T288’ scores were calculated for each well. EC50 values were calculated from four-parameter dose-response curves that were fitted using Prism GraphPad software (La Jolla, CA).

[7] = Average IC50, Supplementary Table 1, FA assay
[8] = Calculated Ki, Supplementary Table 1, free-concentration corrected Cheng-Prusov
[9] = IC50, inhibition of AURKA:TPX2 interaction in FA assay, Fig. 1b
[10] = Ki from FA competition assay, free-concentration corrected Cheng-Prusov equations

Row | Structure (SMILES) | IC50 [1, 7] [µM] | Ki [1, 8] [µM] | N (stoichiometry, ITC fit) ([2]; single-site model fit) [Sites] | ∆H (ITC fit) ([2]; single-site model fit) [kcal/mol] | ∆S (ITC fit) ([2]; single-site model fit) [cal/mol/deg] | Ligand efficiency (Leff) [2] | IC50 [1, 9] [µM] | Ki [1, 10] [µM] | other results
1 | O=C(O)c1cc(-c2cccc(Br)c2)nc2ccc(Cl)cc12 [AA29] | 34.4 | 7.4 | – | – | – | – | – | – | –
2 | O=C(O)c1cc(-c2cccc(Br)c2)nc2ccccc12 [AA30] | 25.6 | 5.5 | – | – | – | – | – | – | –
3 | O=C(O)c1cc(-c2cccc(Br)c2)nc2c(F)cccc12 [AurkinA, 2-(3-bromophenyl)-8-fluoroquinoline-4-carboxylic acid] | – | – | 0.924 | -23.09 | -52.6 | – | – | – | Maximal inhibition of kinase activity (plateau) (pT287/pT288 AURKA126–390): ~ 75%; -T∆S of binding ([2]; ITC): 15.7 kcal/mol; ∆H of binding ([2]; ITC): -23.1 kcal/mol; EC50 [3]: 85 µM; Effect on auto-phosphorylation of AURKA (pT288) [4]: significantly delayed; Effect on co-immunoprecipitation of AURKA with RFP (mCherry-TPX2 1-43) [5]: inhibited; EC50 [6]: 135 µM
4 | O=C(O)c1ccccc1NC(=O)c1cc(-c2ccccc2)nc2ccccc12 [compound 1] | – | – | 0.975 ±0.0300 | -5.917 ± 0.2397 | 2.92 | 0.25 | 41 | 8.9 | Kd ([2]; read-out: Kd (ITC)): 10.6 µM; Kd ([2]; read-out: pKd (ITC) (converted)): 10.5 µM; K (association constant, ITC fit) ([2]; single-site model fit): 94700 ± 7610 M⁻¹; Effect of JNJ-7706621 on the compound's inhibition of the AURKA-TPX2 1-43 interaction ([1]; [JNJ] = 0.4 μM vs DMSO): unaffected
5 | O=C(O)c1cc(-c2ccccc2)nc2ccccc12 [compound 3, 2-phenyl-4-carboxyquinoline, reference compound] | 289 | 62.5 | – | – | – | 0.31 | 63 | 68 | –
